From US7368582B2, “Amidomethyl-substituted 2-(4-sulfonylamino)-3-hydroxy-3,4-dihydro-2H-chromen-6-yl compounds, a process and intermediates for their production, and pharmaceutical compositions containing them” (Solvay Pharmaceuticals GmbH, priority 2003, dated 2008)

What was measured:
Kv 1.5-potassium channel = molecular target: T1, Kv 1.5-potassium channel (Homo sapiens, UniProt P22460); assay: In-vitro Kv 1.5-potassium channel-blocking effect (Rb+ outflow from CHO cells, atomic absorption spectroscopy); assay type: cell-based; conditions: CHO cells stably expressing Kv 1.5, read-out: IC50 (Kv1.5-potassium channel-blocking effect, concentration of half-maximum inhibition)
T1 construct: expressed in transfected cells
T1 sequence (P22460 whole entry): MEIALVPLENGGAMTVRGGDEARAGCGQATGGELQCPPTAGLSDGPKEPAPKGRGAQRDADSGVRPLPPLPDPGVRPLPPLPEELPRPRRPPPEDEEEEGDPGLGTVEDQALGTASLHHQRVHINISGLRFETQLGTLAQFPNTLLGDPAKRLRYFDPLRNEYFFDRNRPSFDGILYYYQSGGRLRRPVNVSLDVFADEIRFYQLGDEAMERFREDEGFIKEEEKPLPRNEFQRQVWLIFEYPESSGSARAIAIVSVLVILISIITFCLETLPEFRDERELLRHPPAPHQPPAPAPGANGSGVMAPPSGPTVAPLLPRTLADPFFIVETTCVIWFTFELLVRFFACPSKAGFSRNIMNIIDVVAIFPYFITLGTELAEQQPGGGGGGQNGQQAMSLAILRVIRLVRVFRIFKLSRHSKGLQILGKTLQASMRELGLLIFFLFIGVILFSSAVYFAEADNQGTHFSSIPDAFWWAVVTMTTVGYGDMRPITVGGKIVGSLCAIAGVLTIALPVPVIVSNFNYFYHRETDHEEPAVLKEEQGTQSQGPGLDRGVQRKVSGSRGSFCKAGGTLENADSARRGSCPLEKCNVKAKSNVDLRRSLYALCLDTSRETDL
Experimental: 1. In-Vitro Investigation of the Kv 1.5-Potassium Channel-Blocking Effect of the Substances
In this test model, a cell line of egg cells of the Chinese hamster (=“Chinese hamster oocytes”, “CHO”) is used which originates from a single cell and stably expresses the Kv 1.5-channel. By incubation overnight in a nutrient medium containing RbCl or a “loading buffer” (all values in mM: RbCl 5, NaCl 140, CaCl2 2, MgSO4 1, HEPES buffer 10, glucose 5) the aforementioned oocytes are loaded with Rb^+ under the influence of Na^+/K^+-ATPase. Thereafter, a portion of the oocytes is incubated as a reference standard in the absence of an inhibitor, while another portion of the oocytes is incubated in the presence of the respective inhibitory test substance of Formula I. Then the oocytes are depolarized by increasing the extracellular potassium-ion concentration, which causes the Kv 1.5-potassium channels of the oocytes to open. In the absence of an inhibitor, the Rb^+ ions flow through the Kv 1.5-potassium channels into the liquid surrounding them. In the presence of an inhibitory test substance of Formula I, on the other hand, the Rb^+ ions remain locked within the oocytes. The extent of the Kv 1.5-potassium channel-blocking effect of the test substances of Formula I is determined by measuring the Rb^+ ion concentration in the liquid surrounding them by means of atomic absorption spectroscopy against a reference standard.
Chinese hamster oocytes (see above) were cultivated in a known, RbCl-containing nutrient medium for CHO-cells and placed in the sample wells of a 96-sample capacity sample plate (“96 well plate”). The oocytes were allowed to grow overnight in order to obtain monolayers of the oocytes. Then the nutrient medium was pipetted off, and each sample well was washed three times with 100 μl portions of a preincubation buffer of low potassium-ion concentration (all values in mM: KCl 5, NaCl 140, CaCl2 2, MgSO4 1, HEPES buffer 10, glucose 5). Then 50 μl of a solution of the respective test substance (stock solution in DMSO, dilution with preincubation buffer, final concentration in the test batch 10 μM) or of the solvent (as negative controls) was added to each sample well and incubated for 10 min. in each case at room temperature. Then 50 μl of a stimulation buffer with elevated potassium-ion concentration (KCl 145 mM, NaCl 0 mM, otherwise as preincubation buffer) was added to each sample well and the samples were then incubated for a further 10 min. at room temperature. In each case, 80 μl of the liquid surrounding the oocytes from each sample well was then transferred separately to the sample wells of an analysis sample plate, and the Rb^+ ion concentration in the liquids was determined by atomic absorption spectroscopy. The test substances were each double-tested. The signal section which represented the Kv 1.5 component of the Rb^+ outflow was defined by using as positive control the known potassium channel blocker 4-AP in a high concentration (100×IC50 for the Kv 1.5 channel). This made it possible to determine which portion of the Rb^+ outflow was dependent on the influence of the 4-AP and therefore is to be assigned to the Kv 1.5 channel. For the substances which in the concentration of 10 μM used led to a reduction in the Rb^+ outflow of at least 50%, additional tests were performed with lower concentrations of the test substances in order to be able to determine the half-maximum effective concentration. In each case the concentration of half-maximum inhibition of the test substances of Formula I (IC50) was given as characteristic variable.

Kv 1.3-potassium channel = molecular target: T2, Kv 1.3-potassium channel (Homo sapiens, UniProt P22001); assay: In-vitro Kv 1.3-potassium channel-blocking effect (membrane potential-sensitive fluorescent dye in transfected CHO cells); assay type: cell-based; conditions: 10 μM test substance; CHO cells transfected with Kv 1.3; relative to reference margatoxin
T2 construct: expressed in transfected cells; host or cells: CHO cells, stably transfected with the Kv 1.3 plasmid using DMRIE-C
T2 sequence (P22001 whole entry): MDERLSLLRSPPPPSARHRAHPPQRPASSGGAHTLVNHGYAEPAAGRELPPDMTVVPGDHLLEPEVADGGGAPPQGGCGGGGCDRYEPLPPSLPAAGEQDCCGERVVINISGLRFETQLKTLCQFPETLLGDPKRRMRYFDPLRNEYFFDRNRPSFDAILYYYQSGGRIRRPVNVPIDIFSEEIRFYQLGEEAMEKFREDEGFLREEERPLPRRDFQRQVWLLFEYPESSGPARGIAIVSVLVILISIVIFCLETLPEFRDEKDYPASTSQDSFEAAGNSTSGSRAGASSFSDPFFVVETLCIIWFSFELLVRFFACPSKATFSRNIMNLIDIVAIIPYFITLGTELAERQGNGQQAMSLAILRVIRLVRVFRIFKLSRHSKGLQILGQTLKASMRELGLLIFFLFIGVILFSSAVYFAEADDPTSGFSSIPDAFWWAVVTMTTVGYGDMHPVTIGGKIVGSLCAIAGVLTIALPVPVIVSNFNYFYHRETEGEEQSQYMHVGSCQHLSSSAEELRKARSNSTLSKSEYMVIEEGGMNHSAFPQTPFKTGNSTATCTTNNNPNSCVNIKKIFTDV
From the text: 2. In-Vitro Investigation of the Kv 1.3-Potassium Channel-Blocking Effect of the Substances
In this test model, known oocytes of the Chinese hamster (═CHO) are used which are stably transfected with the Kv 1.3-potassium channel. The blockade of the cell-inherent Kv 1.3-potassium channel activity in the transfected cells is accompanied by a positive shift in the membrane potential from approx. −40 mV to −30 mV, whereas in the wild-type CHO cells investigated in parallel no significant shift in the membrane potential is triggered. A change in the membrane potential is thus connected to the reduction in the Kv 1.3-potassium channel activity. By blocking the Kv 1.3-potassium channels e.g. with substances of Formula I and the resulting change in the membrane potential, an accumulation of a membrane potential-sensitive fluorescent dye in intracellular compartments of the oocytes and ultimately increasing fluorescence occurs. The change in the membrane potential of the oocytes is therefore measured indirectly via the increase in fluorescence of the membrane potential-senstive dyes.
The cells were transfected with the Kv 1.3 plasmid in known manner with a commercially obtainable transfection reagent (DMRIE-C from Gibco BRL, Germany). The successful transfection was verified by immunofluorescence and by “patch-clamp” investigations of the potassium ion current. The fluorescence measurements were performed on a Tecan Safire fluorescence reader from Tecan, Germany. In each case, the increase in the fluorescent intensity caused by the blockade of the Kv 1.3-potassium channels in the oocytes with substances of Formula I in a concentration of 10 μM was determined as characteristic variable. The increase in the fluorescent intensity was given in each case in percent (%) compared with an increase in the fluorescent intensity caused by the reference substance margatoxin. Margatoxin is known as a selective Kv 1.3-potassium channel blocker (see e.g. M. Garcia-Calvo et al., J. Biol. Chem. 268 (1993) 18866-18874).

[1] = system: left atrium of rats' hearts; assay: Functional refractory period prolongation on isolated left atria of rats' hearts in vitro; design: species or system rat (Sprague-Dawley); conditions: 10 μM
Experimental: 3. Investigation of the Functional Effectiveness of the Substances on the Atrium of Rats' Hearts in Vitro
In this test model it is determined to what extent the Kv 1.5-blocking substances of Formula I result in a prolongation of the functional refractory period in the left atrium of rats. The refractory period is the minimum possible elapsed time between the basic stimulus and additional stimulus in which a renewed contraction can be triggered. The extent of the prolongation of the functional refractory period is a measurement of the antiarrhythmic effectiveness of the substances according to the invention. The functional refractory period is determined by testing on the electrically stimulated preparation at what elapsed time from the preceding contraction a renewed contraction can be triggered by additional electrical stimuli.
The hearts were removed from freshly sacrificed rats (Sprague-Dawley, Charles-River, Germany). The left atria were isolated and fastened to force transducers in a temperature-controlled (30° C.), gasified (O2 95%, CO2 5%) organ bath which was filled with modified Tyrode solution (all values in mM: NaCl 137; KCl 2.7; CaCl2 1.8; MgCl2 0.8; NaHCO3 11.9; NaH2PO4 0.6; glucose 5). In order to trigger regular contractions, the preparations were electrically stimulated (rectangular pulses, pulse magnitude 3.5× threshold stimulus, pulse width 1.5 ms, frequency 1 Hz). Initially, the initial value of the functional refractory period was determined by applying extra pulses in addition to the basic stimulus, the elapsed time from the preceding basic stimulus being shortened until no further additional contraction could be triggered. Then the cumulative addition of increasing concentrations (0.1-10 μM) of the substances of Formula I took place at intervals of 20 min. each, the refractory period being determined again in each case 18 min. after the addition had taken place. Before the measurement, stock solutions of the test substances (3.2 and 0.32 mM in 100% DMSO) were prepared. In order to achieve the desired final concentrations of the substances (0.1-10 μM) in the organ bath (volume 100 ml), corresponding volumes of these stock solutions were then poured into the organ bath.
In each case the prolongation of the functional refractory period (FRP) in the left atrium of the rats' hearts in milliseconds observed after the addition of 10 μM of the respective substance of Formula I to the atrial preparations was given as characteristic variable.

Row | Compound | IC50 (Kv 1.5-potassium channel) [µM] | Increase in the fluorescent intensity (% margatoxin) (Kv 1.3-potassium channel) | FRP prolongation [1] [ms]
1 | Cc1ccc(S(=O)(=O)N(CC2CC2)C2c3cc(CC(=O)NCc4ccccc4)ccc3OC(C)(C)C2O)cc1 (stereo not shown) [Example 18] | 2.7 | 141 | 
2 | COc1cccc(S(=O)(=O)N(CCC(C)C)C2c3cc(CC(=O)NCc4ccc(Cl)cc4)ccc3OC(C)(C)C2O)c1 (stereo not shown) [Example 27] | 5.6 |  | 
3 | Cc1ccc(S(=O)(=O)NC2c3cc(CC(=O)NC4CCCc5ccccc54)ccc3OC(C)(C)C2O)cc1 (mixture of isomers) [Example 15] | 4 |  | 30
4 | CCCNC(=O)Cc1ccc2c(c1)C(N(CCC(C)C)S(=O)(=O)c1ccc(-c3ccccc3)cc1)C(O)C(C)(C)O2 (stereo not shown) [Example 26] | 5.2 |  | 
5 | Cc1cccc(S(=O)(=O)NC2c3cc(CC(=O)NCc4ccc(Cl)cc4)ccc3OC(C)(C)C2O)c1 (stereo not shown) [Example 5, N-(4-chlorobenzyl)-2-(3-hydroxy-2,2-dimethyl-4-{[(3-methylphenyl)sulfonyl]amino}-3,4-dihydro-2H-chromen-6-yl)acetamide] | 5 | 82 | 
6 | CC(C)CCN(C1c2cc(CC(=O)NCc3ccccc3)ccc2OC(C)(C)C1O)S(=O)(=O)c1ccc(C(F)(F)F)cc1 (stereo not shown) [Example 23] | 4.3 | 41 | 
7 | CCCNC(=O)Cc1ccc2c(c1)C(N(CC(C)C)S(=O)(=O)c1ccc(F)c(Cl)c1)C(O)C(C)(C)O2 (stereo not shown) [Example 24] | 5 |  | 
8 | CCCCNC(=O)Cc1ccc2c(c1)C(N(CC(CC)CC)S(=O)(=O)c1cc(OC)ccc1OC)C(O)C(C)(C)O2 (stereo not shown) [Example 6] | 2.9 | 97 | 
9 | CCC(CC)CN(C1c2cc(CC(=O)NCc3ccco3)ccc2OC(C)(C)C1O)S(=O)(=O)c1cc(OC)ccc1OC (stereo not shown) [Example 21] | 3.3 | 86 | 
10 | CCCCCN(C1c2cc(CC(=O)NC(C)C(C)C)ccc2OC(C)(C)C1O)S(=O)(=O)c1cccc(OC)c1 (stereo not shown) [Example 22] | 3.4 | 71 | 
11 | CCCCNC(=O)Cc1ccc2c(c1)C(NS(=O)(=O)c1ccc(I)cc1)C(O)C(C)(C)O2 (stereo not shown) [Example 17] | 2.65 | 72 | 
12 | Cc1ccc(S(=O)(=O)N(CCC(C)C)C2c3cc(CC(=O)NCc4ccccc4)ccc3OC(C)(C)C2O)cc1 (stereo not shown) [Example 19] | 2.5 | 171 | 
13 | CC(C)CCN(C1c2cc(CC(=O)NCc3ccccc3)ccc2OC(C)(C)C1O)S(=O)(=O)c1ccc2ccccc2c1 (stereo not shown) [Example 25] | 5.2 |  | 
